Reference: patent US7635722B1, “Chemical induced intracellular hyperthermia” (priority 1998, dated 2009)

Test system: Borrelia burgdorferi
Test: DNP hyperthermia, Lyme disease (Example 3)
Format: in vivo, human
Method: Pretreatment protocol: the evening prior treatment the patient was instructed not to eat and dress in cotton undergarments. Approximately 4 hours prior to treatment 2 mg alprazolam was administered by mouth. The patient dressed themself into a dry cold water immersion suit (Stearns, previously described) with headgear. Monitoring sensors, including EKG display, IV fluids and Foley catheter were attached and the suit was zipped closed. The patient opted for oxygen supplementation. The modified face mask was connected to the TEEM 100 metabolic Analysis System for V02 measurements. Data was recorded as previously described.
The patient was infused with 1 mg/kg DNP over a 2 minute period. V02 increased and stabilized at 250 cc/min, 5.3 cc/kg/min. A second dose of 2.0 mg/kg was infused over a 2 minute period and the V02 peaked at 400 cc/min, 8.8 cc 02/kg/min. An additional dose of 1.0 mg/kg DNP was given 30 minutes after the second dose. The V02 increased and reached a stable plateau at 600 cc/min, […]. […] V02 increased back to 680-710 cc/min. […] The patient periodically requested the V02 monitoring mask be removed during the hyperthermia treatment period. They were accommodated with removal of the mask on two occasions for periods not exceeding 10 minutes. […] The treatment was terminated 4 hours and 10 minutes after the initial dose of DNP. Twenty five minutes after the patient was removed from the neoprene survival suit, the rectal core temperature dropped to 38.5° C. Normothermia was achieved approximately 60 minutes after cessation of therapy and removal from the survival suit. Approximately 6.5 to 7 hours after treatment the patient experienced chills, an increase in oral temperature to 38.7 degrees centigrade and malaise. IV fluids and the dopamine drip at 2 mcg/kg/min were restarted and the patient was closely observed. Their symptoms subsided over 3 hours and by the next day they felt active and hungry. It was surmised they may have experienced a delayed Jarisch-Herxheimer reaction. The patients monitored treatment flow chart is FIG. 18.

O=[N+]([O-])c1ccc(O)c([N+](=O)[O-])c1 [DNP, 2,4-dinitrophenol]
repeat spinal fluid analysis, Borrelia DNA by PCR (after treatment): no detectable Borrelia DNA by PCR | spinal fluid culture on Barbour-Stoenner-Kelly II medium (three months later): negative | EKG (two months follow-up): resolution of their first degree A-V block | symptoms (two months follow-up): arthralgias, myalgias, malaise, fatigue and memory deficits have disappeared
